# Reference: patent publication US8173682B2, “Substituted pyridones as inhibitors of poly(ADP-ribose) polymerase (PARP)” (Aventis Pharmaceuticals Inc., priority 2004, dated 2012)
# Read-outs that look alike come from different tables or passages of the source.
# Target: recombinantly expressed human PARP-1 enzyme (Homo sapiens, UniProt P09874)
# Assay: PARP enzyme assay, Method B (tritium-labeled NAD incorporation)
# Type: biochemical
# Experimental: Method B: PARP Enzyme Assay:
# The IC50 is determined in this method by incubating the substances to be tested with the DNA-activated, recombinantly expressed and purified PARP-1 enzyme. Specifically, various concentrations of the test substance are incubated in 50 μL of reaction solution, which contains 50 mM Tris, 5 mM MgCl2, 1 mM DTT, 200 μM NAD, 0.1 m Ci/mL tritium-labeled NAD, 0.1 mg/mL DNA, 0.1 mg/mL histones, 2 μg/mL recombinantly expressed human PARP-1 enzyme, pH=8.0, at room temperature for 1 hour. The reaction is stopped by adding 150 μL of 20% trichloroacetic acid, and the radiolabeled protein constituents are precipitated. After incubation on ice for 10 minutes, the labeled, insoluble constituents are separated off through a glass fiber filter and, after washing with 20% trichloroacetic acid three times, the radioactivity incorporated by the PARP-1 enzyme is measured by radioluminescence. Consideration of the incorporation rates determined in this way as a function of the concentration of the test substance results in IC50 as the concentration of the test substance which reduces the incorporation rate to half the maximum value attainable (incubation without inhibitor).
# The IC50 (fifty percent inhibitory concentration of the test substance in a solution—expressed at micromolar (μM) concentration) measured in accordance with these procedures for the compounds of this invention are summarized in Table 1.
# [1] = Method B, 200 μM NAD, room temperature 1 hour, pH 8.0, read-out: IC50 (μM)/Method B
# Sequence of recombinantly expressed human PARP-1 enzyme (P09874 whole entry): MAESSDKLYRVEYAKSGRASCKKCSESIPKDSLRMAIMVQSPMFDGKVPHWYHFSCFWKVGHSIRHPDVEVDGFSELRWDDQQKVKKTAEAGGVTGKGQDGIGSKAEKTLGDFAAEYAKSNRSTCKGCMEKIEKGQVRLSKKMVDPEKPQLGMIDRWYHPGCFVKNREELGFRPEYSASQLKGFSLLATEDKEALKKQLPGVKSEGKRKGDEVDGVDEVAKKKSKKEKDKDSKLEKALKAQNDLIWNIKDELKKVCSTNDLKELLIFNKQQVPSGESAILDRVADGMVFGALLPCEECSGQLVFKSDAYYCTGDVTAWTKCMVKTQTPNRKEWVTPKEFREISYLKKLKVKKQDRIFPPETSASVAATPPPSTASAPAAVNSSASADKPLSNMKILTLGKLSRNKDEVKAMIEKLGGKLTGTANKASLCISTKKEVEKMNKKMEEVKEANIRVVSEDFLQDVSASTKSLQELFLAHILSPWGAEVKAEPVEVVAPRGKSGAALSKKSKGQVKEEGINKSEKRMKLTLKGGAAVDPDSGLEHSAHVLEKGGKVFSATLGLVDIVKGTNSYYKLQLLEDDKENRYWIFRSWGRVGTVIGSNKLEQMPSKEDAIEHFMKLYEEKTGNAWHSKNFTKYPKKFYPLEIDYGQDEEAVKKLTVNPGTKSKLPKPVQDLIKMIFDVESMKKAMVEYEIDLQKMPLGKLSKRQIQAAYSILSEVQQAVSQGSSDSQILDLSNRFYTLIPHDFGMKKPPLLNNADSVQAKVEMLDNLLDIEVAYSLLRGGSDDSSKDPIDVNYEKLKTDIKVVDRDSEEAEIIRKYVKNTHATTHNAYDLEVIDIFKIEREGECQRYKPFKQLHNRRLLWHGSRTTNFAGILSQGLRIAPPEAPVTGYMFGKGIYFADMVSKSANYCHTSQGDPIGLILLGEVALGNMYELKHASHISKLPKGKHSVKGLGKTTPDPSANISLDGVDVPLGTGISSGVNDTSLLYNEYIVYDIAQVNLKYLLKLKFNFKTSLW
SMILES,IC50 [1],IC50
"CCc1cc(-c2ccc(CNCc3cnn(C)c3)o2)c(C)[nH]c1=O [Example 182D, 3-Ethyl-6-methyl-5-(5-{[(1-methyl-1H-pyrazol-4-ylmethyl)-amino]-methyl}-furan-2-yl)-1H-pyridin-2-one]",0.3 µM,–
"CCc1cc(-c2cncc(C(=O)Nc3ccc(C(C)=O)cc3)c2)c(C)[nH]c1=O [Example 246, 5′-Ethyl-2′-methyl-6′-oxo-1′,6′-dihydro-[3,3′]bipyridinyl-5-carboxylic acid (4-acetyl-phenyl)-amide]",0.64 µM,–
"CCc1cc(-c2cncc(C(=O)NCCn3c([N+](=O)[O-])cnc3C)c2)c(C)[nH]c1=O [Example 249, 5′-Ethyl-2′-methyl-6′-oxo-1′,6′-dihydro-[3,3′]bipyridinyl-5-carboxylic acid [2-(2-methyl-5-nitro-imidazol-1-yl)-ethyl]-amide]",5 µM,–
"CCc1cc(-c2cncc(C(=O)NCC(O)c3ccccc3)c2)c(C)[nH]c1=O (centres unmarked) [Example 253, 5′-Ethyl-2′-methyl-6′-oxo-1′,6′-dihydro-[3,3′]bipyridinyl-5-carboxylic acid (2-hydroxy-2-phenyl-ethyl)-amide]",0.49 µM,–
"CCc1cc(-c2cccc(CN3CCN(C(C)=O)CC3)n2)c(C)[nH]c1=O [Example 182J, 6-(4-Acetyl-piperazin-1-ylmethyl)-5′-ethyl-2′-methyl-1′H-[2,3′]bipyridinyl-6′-one]",14.6 µM,–
"CCc1cc(-c2cncc(C(=O)NCCN3C(=O)CSC3=O)c2)c(C)[nH]c1=O [Example 254, 5′-Ethyl-2′-methyl-6′-oxo-1′,6′-dihydro-[3,3′]bipyridinyl-5-carboxylic acid [2-(2,4-dioxo-thiazolidin-3-yl)-ethyl]-amide]",11.7 µM,–
"CCc1cc(-c2ccc(C(=O)N3CCC(O)C3)cn2)c(C)[nH]c1=O (centres unmarked) [Example 210, 5′-Ethyl-5-(3-hydroxy-pyrrolidine-1-carbonyl)-2′-methyl-1′H-[2,3′]bipyridinyl-6′-one]",12.1 µM,–
"CCc1cc(-c2cncc(C(=O)NCCOC)c2)c(C)[nH]c1=O [Example 261, 5′-Ethyl-2′-methyl-6′-oxo-1′,6′-dihydro-[3,3′]bipyridinyl-5-carboxylic acid (2-methoxy-ethyl)-amide]",2.07 µM,–
"CCc1cc(-c2cc(C(=O)NC3CCCC3)ccn2)c(C)[nH]c1=O [Example 216, 5′-Ethyl-2′-methyl-6′-oxo-1′,6′-dihydro-[2,3′]bipyridinyl-4-carboxylic acid cyclopentylamide]",1.5 µM,–
"CCCCNC(=O)c1cccc(-c2cc(CC)c(=O)[nH]c2C)n1 [Example 206, 5′-Ethyl-2′-methyl-6′-oxo-1′,6′-dihydro-[2,3′]bipyridinyl-6-carboxylic acid butylamide]",1.14 µM,–
"CCc1cc(-c2cncc(C(=O)NC3CCCC3)c2)c(C)[nH]c1=O [Example 219, 5′-Ethyl-2′-methyl-6′-oxo-1′,6′-dihydro-[3,3′]bipyridinyl-5-carboxylic acid cyclopentylamide]",1.53 µM,–
"CCc1cc(-c2cncc(C(=O)NCCc3ccccc3)c2)c(C)[nH]c1=O [Example 236, 5′-Ethyl-2′-methyl-6′-oxo-1′,6′-dihydro-[3,3′]bipyridinyl-5-carboxylic acid phenethyl-amide]",0.44 µM,–
"CCc1cc(-c2cncc(C(=O)NCCc3ccc([N+](=O)[O-])cc3)c2)c(C)[nH]c1=O [Example 230, 5′-Ethyl-2′-methyl-6′-oxo-1′,6′-dihydro-[3,3′]bipyridinyl-5-carboxylic acid [2-(4-nitro-phenyl)-ethyl]-amide]",0.13 µM,–
"CCc1cc(-c2cncc(C(=O)NC(c3cccnc3)C3CC3)c2)c(C)[nH]c1=O (centres unmarked) [Example 228, 5′-Ethyl-2′-methyl-6′-oxo-1′,6′-dihydro-[3,3′]bipyridinyl-5-carboxylic acid (cyclopropyl-pyridin-3-yl-methyl)-amide]",10.7 µM,–
"CCc1cc(-c2cncc(C(=O)N3CCC(=O)CC3)c2)c(C)[nH]c1=O [Example 234, 5-Ethyl-2-methyl-5′-(4-oxo-piperidine-1-carbonyl)-1H-[3,3′]bipyridinyl-6-one]",–,2.46 µM
"CCc1cc(-c2ccc(CO)o2)c(C)[nH]c1=O [Example 200A, 3-Ethyl-5-(5-hydroxymethyl-furan-2-yl)-6-methyl-1H-pyridin-2-one]",1.03 µM,–
"CCc1cc(-c2cncc(C(=O)N(C)CC(N)=O)c2)c(C)[nH]c1=O [Example 233, 5′-Ethyl-2′-methyl-6′-oxo-1′,6′-dihydro-[3,3′]bipyridinyl-5-carboxylic acid carbamoylmethyl-methyl-amide]",1.65 µM,–
"CCCCNC(=O)c1cncc(-c2cc(CC)c(=O)[nH]c2C)c1 [Example 223, 5′-Ethyl-2′-methyl-6′-oxo-1′,6′-dihydro-[3,3′]bipyridinyl-5-carboxylic acid butylamide]",0.92 µM,–

SMILES,IC50 [1],IC50
"CCc1cc(-c2cncc(C(=O)NCc3cccc(OC)c3)c2)c(C)[nH]c1=O [Example 263, 5′-Ethyl-2′-methyl-6′-oxo-1′,6′-dihydro-[3,3′]bipyridinyl-5-carboxylic acid 3-methoxy-benzylamide]",2.67 µM,–
"CCc1cc(-c2cncc(C(=O)NCc3cccnc3)c2)c(C)[nH]c1=O [Example 222, 5′-Ethyl-2′-methyl-6′-oxo-1′,6′-dihydro-[3,3′]bipyridinyl-5-carboxylic acid (pyridin-3-ylmethyl)-amide]",0.75 µM,–
"CCc1cc(-c2ccc(CNCCc3ccc(Cl)c(S(N)(=O)=O)c3)o2)c(C)[nH]c1=O [Example 182C, 2-Chloro-5-(2-{[5-(5-ethyl-2-methyl-6-oxo-1,6-dihydro-pyridin-3-yl)-furan-2-ylmethyl]-amino}-ethyl)-benzenesulfonamide]",0.28 µM,–
"CCc1cc(-c2ccc(C(=O)NCc3ccccn3)cn2)c(C)[nH]c1=O [Example 208, 5′-Ethyl-2′-methyl-6′-oxo-1′,6′-dihydro-[2,3′]bipyridinyl-5-carboxylic acid (pyridin-2-ylmethyl)-amide]",14.8 µM,–
"CCc1cc(-c2ccc(C(=O)NC3CCCC3)cn2)c(C)[nH]c1=O [Example 212, 5′-Ethyl-2′-methyl-6′-oxo-1′,6′-dihydro-[2,3′]bipyridinyl-5-carboxylic acid cyclopentylamide]",12.9 µM,–
"CCc1cc(-c2ccc(CNC(C)=O)o2)c(C)[nH]c1=O [Example 274, N-[5-(5-Ethyl-2-methyl-6-oxo-1,6-dihydro-pyridin-3-yl)-furan-2-ylmethyl]-acetamide]",0.83 µM,–
"CCc1cc(-c2ccc(C(=O)N3CCN(c4ccccc4)CC3)o2)c(C)[nH]c1=O [Example 201, 3-Ethyl-6-methyl-5-[5-(4-phenyl-piperazine-1-carbonyl)-furan-2-yl]-1H-pyridin-2-one]",1.35 µM,–
"CCc1cc(-c2ccc(CNCc3ccccc3OC(F)(F)F)o2)c(C)[nH]c1=O [Example 182E, 3-Ethyl-6-methyl-5-{5-[(2-trifluoromethoxy-benzylamino)-methyl]-furan-2-yl}-1H-pyridin-2-one]",1.49 µM,–
"CCc1cc(-c2ccc(S(=O)(=O)NCc3c[nH]c4ccccc34)s2)c(C)[nH]c1=O [Example 122D, 5-(5-Ethyl-2-methyl-6-oxo-1,6-dihydro-pyridin-3-yl)-thiophene-2-sulfonic acid (1H-indol-3-ylmethyl)-amide]",0.06 µM,–
"CCc1cc(-c2cncc(C(=O)NCCN3CCOCC3)c2)c(C)[nH]c1=O [Example 241, 5′-Ethyl-2′-methyl-6′-oxo-1′,6′-dihydro-[3,3′]bipyridinyl-5-carboxylic acid (2-morpholin-4-yl-ethyl)-amide]",1.25 µM,–
"CCc1cc(-c2cncc(C(=O)NCC(=O)c3ccccc3)c2)c(C)[nH]c1=O [Example 244, 5′-Ethyl-2′-methyl-6′-oxo-1′,6′-dihydro-[3,3′]bipyridinyl-5-carboxylic acid (2-oxo-2-phenyl-ethyl)-amide]",0.32 µM,–
"CCc1cc(-c2cc(C(=O)N3CCCC3)ccn2)c(C)[nH]c1=O [Example 214, 5′-Ethyl-2′-methyl-4-(pyrrolidine-1-carbonyl)-1′H-[2,3′]bipyridinyl-6′-one]",1.4 µM,–
"CCc1cc(-c2ccc(C(C)O)o2)c(C)[nH]c1=O (centres unmarked) [Example 268, 3-Ethyl-5-[5-(1-hydroxy-ethyl)-furan-2-yl]-6-methyl-1H-pyridin-2-one]",1.8 µM,–
CCc1cc(-c2ccc(CN3CCCC3)o2)c(C)[nH]c1=O [Example 181],0.49 µM,–
"CCc1cc(-c2cncc(C(=O)NCCc3ccc(OC)cc3)c2)c(C)[nH]c1=O [Example 239, 5′-Ethyl-2′-methyl-6′-oxo-1′,6′-dihydro-[3,3′]bipyridinyl-5-carboxylic acid [2-(4-methoxy-phenyl)-ethyl]-amide]",0.94 µM,–
"CCc1cc(-c2cncc(C(=O)NCc3nccs3)c2)c(C)[nH]c1=O [Example 250, 5′-Ethyl-2′-methyl-6′-oxo-1′,6′-dihydro-[3,3′]bipyridinyl-5-carboxylic acid (thiazol-2-ylmethyl)-amide]",0.64 µM,–
"CCc1cc(-c2cncc(C(=O)NCCc3ccc(S(N)(=O)=O)cc3)c2)c(C)[nH]c1=O [Example 237, 5′-Ethyl-2′-methyl-6′-oxo-1′,6′-dihydro-[3,3′]bipyridinyl-5-carboxylic acid [2-(4-sulfamoyl-phenyl)-ethyl]-amide]",1.34 µM,–
